Measured values taken from patent US20210371784A1, “CELL-CONTAINING VESSEL AND METHOD FOR PRODUCING NEURAL CELL-CONTAINING SPHEROID” (RICOH COMPANY, LTD., priority 2020, published 2021).

Tested on: spheroids of human iPSC-derived neurons and human iPSC-derived astrocytes
Test: Calcium transient assay of neural cell-containing spheroids in the presence of a drug
Format: cell-based
Conditions: 4-AP final concentration 30 μM, 10-minute period immediately following the addition, spheroids cultured 7 weeks
Source text: Spheroids were produced using human iPSC-derived neurons and human iPSC-derived astrocytes, and the drug responsiveness was investigated. First, human iPSC-derived neurons (mixed neurons, manufactured by Elixirgen Scientific, Inc.) and human iPSC-derived astrocytes (Human iPS-derived Astrocytes (mature), manufactured by Xcell Science Inc.) were mixed so as to achieve cell numbers per well that satisfied the cell numbers indicated below in Table 3 for test numbers 3-1 and 3-2. Subsequently, each cell mixture was inoculated onto a spheroid production plate and cultured to produce a spheroid. […]
Subsequently, following culturing for 7 weeks, each of the spheroids was subjected to a calcium transient assay in the presence of a drug. […] In the calcium transient assays, excessive excitation of the neurons was detected as an increase in oscillation frequency or an elevated baseline.
Specifically, first, each spheroid was transferred to a measurement plate, a calcium-sensitive fluorescent dye (EarlyTox Cardiotoxicity Kit, manufactured by Molecular Devices, LLC) was added to the medium, and the mixture was incubated. Subsequently, 4-AP was added to the medium in an amount sufficient to achieve a final concentration of 30 μM, and fluorescence measurements were conducted at 0.6-second intervals for the 10-minute period immediately following the addition. […]

## Nc1ccncc1 [4-AP, 4-aminopyridine]
Test number 3-1, cell number ratio (neurons:astrocytes) 1:1
  change in the waveform of the oscillations (drug responsiveness): the expected type of change in the waveform of the oscillations was confirmed
Test number 3-2, cell number ratio (neurons:astrocytes) 4:1
  change in the waveform of the oscillations (drug responsiveness): the expected type of change in the waveform of the oscillations could not be confirmed
